According to US20160166532A1, “CARNITINE PALMITOYLTRANSFERASE 1 INHIBITORS FOR INHIBITION OF PATHOLOGICAL ANGIOGENESIS” (VIB VZW, priority 2013, published 2016):
Where two headings read alike, the source gives them in different places.

Assays:
EC spheroids = assay: In vitro EC spheroid sprouting assay; assay type: cell-based
Text: (§1) In angiogenic EC monolayers, CPT1a knock down (KD) reduced EC proliferation by 40% as measured by ^3H thymidine incorporation (see FIG. 2). Furthermore, CPT1a KD EC were found more frequently in the G0/G1 phase of the cell cycle. EC migration on the other hand was not affected as measured by scratch wound assay and modified Boyden chamber even when proliferation was blocked using mitomycin C (see FIG. 3). To study the effect of CPT1a KD on vessel sprouting, an in vitro EC spheroid sprouting assay was employed. In this model, EC are cultured in suspension to form spheroids in hanging drops, embedded in a collagen I matrix and subsequently stimulated with growth factors to allow sprouts to be formed. In this model, a tip cell with filopodia leads the sprout while the stalk cells trail behind and proliferate to elongate the sprout. […] To further investigate this observation, a mosaic spheroid model was employed to assess tip cell competition. Here, 50% WT^RED and 50% WT^GFP cells are mixed and, when the spheroids have sprouted, which one is at the tip is determined. In this model, tip cell position can be determined via migration and/or proliferation. In case of a WT/WT mixture, 50% green and 50% red cells are at the tip. However, when 50% WT^RED cells are mixed with 50% CPT1a^KD/GFP cells, less green cells were present at the tip. This effect was abrogated when spheroids were treated with mitomycin C.

[1] = Palmitate uptake and incorporation in organs; assay type: in vivo, mice; details: pups
[2] = Tolerability in etomoxir-treated pups (body weight, heart H&E staining); assay type: in vivo, mice
[3] = system: choroidal neovascularization (CNV) in male C57BL/6 mice; assay: Laser-induced choroidal neovascularization (CNV) model; assay type: in vivo; details: 35 mg/kg i.p. daily, two weeks, vs vehicle
Text: The protein extravasation and hemorrhage associated with choroidal neovascularization (CNV) are primary causes of severe vision loss in retinal diseases such as age-related macular degeneration (ARMD). In ARMD the normal barrier function of Bruch's membrane is compromised, and CNV can develop, either under the retinal pigment epithelium (RPE) or photoreceptor outer segments. The choroidal neovascularization model serves as a reliable disease model for macular degeneration. Choroidal neovascularization (CNV) is induced in mice by laser burn. Laser burn (400 mW) is performed with Alcon PUREPOINT® equipment. CNV is measured by investigators masked to treatment. Eyes are enucleated after retrobulbar perfusion with FITC-dextran (HMW) and flat mounted. The CNV area, total lesion area, and their ratio are analyzed using Zeiss Axio Imager Z1 microscope with macros (KS300 image analysis software) on FITC-perfused (200 μL; 25 mg/mL; 10 minutes) flat mounts. The intraocular administration of siRNAs directed against CPT1a or the use of chemical inhibitors against CPT1a, is carried out, prior to or shortly after the induction of the laser burn, in the above-described murine model for age-related macular degeneration. […]

endothelial cells (ECs) = assay: 3H palmitate oxidation assay (fatty acid oxidation, 3H-9,10-palmitic acid tracer); assay type: cell-based
Text: (§2) CPT1 enzymes are rate limiting for fatty acid oxidation and, of the three isoforms, CPTla is the most abundant in ECs. To explore the functional relevance of CPT1a in ECs, its expression was compared in quiescent versus angiogenic EC monolayers. Strikingly, CPT1a RNA and protein levels were increased during contact inhibition—an in vitro model of quiescence—when compared to proliferating/migrating ECs. […] To correlate these expression levels to functional relevance, fatty acid oxidation was measured using a ^3H-9,10-palmitic acid tracer. […] To confirm that fatty acid oxidation in ECs is primarily CPT1a driven, its expression was blocked using a shRNA directed against CPT1a. The shRNA sequence used was 5′-[…] […]-3′ (SEQ ID NO:1).
(§3) Even more, using notch signaling as a model of quiescence, the notch-induced increase in FAO was abrogated upon CPT1a KD.

CPT1a = molecular target: T1, CPT1a (Homo sapiens, UniProt P50416); assay: CPT1a protein levels after shRNA knock down in ECs; assay type: cell-based
T1 construct: of the three isoforms, CPTla is the most abundant in ECs; endogenous in cells; host or cells: endothelial cells (ECs)
T1 sequence (P50416 1-773): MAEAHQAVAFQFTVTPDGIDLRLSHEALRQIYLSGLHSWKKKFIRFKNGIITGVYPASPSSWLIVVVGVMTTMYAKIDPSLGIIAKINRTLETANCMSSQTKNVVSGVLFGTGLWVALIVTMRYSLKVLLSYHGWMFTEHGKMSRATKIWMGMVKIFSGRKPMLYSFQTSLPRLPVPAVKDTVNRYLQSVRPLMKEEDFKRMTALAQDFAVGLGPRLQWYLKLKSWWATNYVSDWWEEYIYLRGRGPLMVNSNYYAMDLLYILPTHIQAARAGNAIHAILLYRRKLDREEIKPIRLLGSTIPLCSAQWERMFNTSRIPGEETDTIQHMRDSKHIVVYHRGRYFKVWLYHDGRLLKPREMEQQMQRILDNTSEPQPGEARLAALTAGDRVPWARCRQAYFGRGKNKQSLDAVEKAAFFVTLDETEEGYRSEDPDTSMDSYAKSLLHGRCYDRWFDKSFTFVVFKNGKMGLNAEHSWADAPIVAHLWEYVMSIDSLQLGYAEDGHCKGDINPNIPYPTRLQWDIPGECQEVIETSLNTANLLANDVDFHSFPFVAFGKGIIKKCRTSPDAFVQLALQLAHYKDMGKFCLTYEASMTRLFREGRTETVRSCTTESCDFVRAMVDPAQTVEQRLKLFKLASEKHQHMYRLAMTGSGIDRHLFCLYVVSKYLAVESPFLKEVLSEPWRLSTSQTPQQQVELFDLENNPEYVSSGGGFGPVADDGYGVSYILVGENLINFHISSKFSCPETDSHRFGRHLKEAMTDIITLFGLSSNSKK
Text: as §2, §3

angiogenic EC monolayers = assay: 3H thymidine incorporation assay (EC proliferation); assay type: cell-based
Text: as §1, with “This effect was abrogated when spheroids were treated with mitomycin C.” left out

ECs [4] = assay: Scratch wound assay and modified Boyden chamber (EC migration); assay type: cell-based; details: scratch wound assay, modified Boyden chamber
Text: as §1, with “This effect was abrogated when spheroids were treated with mitomycin C.” left out

ECs [5] = assay: Energy charge, ATP levels and AMPK phosphorylation in ECs; assay type: cell-based
Text: Next, how fatty acid oxidation could exert its proliferation-dependent effects on vessel sprouting was questioned. Through fueling the TCA with […] molecules of acetyl-COA, 1 palmitate can generate much more ATP via oxidative phosphorylation compared to 1 glucose. However, as was shown previously, angiogenic ECs rely primarily on glycolysis for ATP production. Nevertheless, it was desired to rule out that the CPT1a-induced proliferation defect was caused by ATP depletion. […] One would also expect that whenever cells are in ATP distress, they would up-regulate a major ATP-producing pathway. […] Furthermore, no signs of energy distress were observed, as shown by AMPK-p, and no induction of autophagy was observed as measured by LC3.

ECs [6] = assay: Intracellular H2O2 levels in ECs; assay type: cell-based
Text: Proliferation requires many building blocks such as protein, RNA, DNA, . . . to allow duplication of one cell into two daughter cells. Up until now, the role of mitochondria in ECs was thought to be for signaling purposes and not so much for biomass production, as ECs are highly glycolytic. […] FAO can fuel the TCA cycle with […] molecules of acetyl COA, thereby providing plenty of intermediates for biomass as well as producing NADPH that can be used for anti-oxidant defense or lipid synthesis. […] However, this increase in ROS could not explain the proliferation defect as no DNA damage checkpoint was activated in these cells as measured by ATM-P, p53 and p21 levels. […] Therefore, it was hypothesized that blocking FAO would reduce TCA intermediates needed for biomass production. Even more, using ^13C palmitate, it was shown that CPT1a KD cells incorporate less 13C label in TCA intermediates and in biomass.

## CC(=O)O [acetate]
EC spheroids; 20 mM supplementation
  rescue of reduced sprouting of CPT1a knock down spheroids: rescued

## CC(=O)N[C@@H](CS)C(=O)O [NAC]
EC spheroids; NICD overexpression model of quiescence
  rescue of reduced sprouting upon CPT1a silencing in quiescent spheroids: did rescue the phenotype

## CCOC(=O)[C@@]1(CCCCCCOc2ccc(Cl)cc2)CO1 [etomoxir]
[1]
  14C palmitate uptake in organs: significantly reduced
  incorporation of 13C palmitate in TCA intermediates in organs: significantly reduced
[2]
  defects in the heart (H&E staining): did not cause any defects in the heart
[3]
  reduction of neovascularization area: less than 50%
[3]; p<0.05
  pathological neovascular area (in words): reduced the pathological neovascular area

## shCPT1a: shRNA directed against CPT1a, SEQ ID NO:1: 5'-CCGGGCCATGAAGCTCTTAGACAAACTCGAGTTTGTCTAAGAGCTTCATGGCTTTTTG-3'
Endothelial cells (ECs)
  fatty acid oxidation: reduced fatty acid oxidation
Endothelial cells (ECs); listed as shRNA directed against CPT1a
  fatty acid oxidation: significantly reduced
CPT1a
  CPT1a protein levels: nearly undetectable levels
Angiogenic EC monolayers
  proliferation (in words): reduced proliferation
Angiogenic EC monolayers; angiogenic EC monolayers
  reduction of EC proliferation: 40%
ECs [4]
  EC migration: no differences in migration
ECs [4]; listed as CPT1a KD
  EC migration: not affected
EC spheroids; collagen I matrix, growth factor stimulated
  vessel sprouting of EC spheroids: fewer and shorter sprouts
ECs [5]
  ATP distress (Western blot for AMPK phosphorylation): does not show any ATP distress
  energy charge: did not affect
ECs [6]
  increase in intracellular H2O2 levels: 40%
